Reference: US20240217951A1, “PCSK9 INHIBITORS AND METHODS OF USE THEREOF” (AstraZeneca AB, priority 2022, published 2024)

Tests used:
PCSK9 = PCSK9 (Homo sapiens, UniProt Q8NBP7, G670E/V474I); experiment: biochemical
[1] = molecular target: T1, potassium ion channel hERG (human Ether-á-go-go-Related Gene) (Homo sapiens, UniProt Q12809); experiment: Assay 5 - hERG assay (SyncroPatch 384PE patch clamp, CHO cells); assay type: cell-based; details: geometric mean; CHO cells over-expressing hERG; read-out: Assay 5 (hERG Hu CHO IF EPh CR-Syncro) GMean IC50
T1 construct: expressed in transfected cells; host or cells: Chinese hamster ovary K1 (CHO)
T1 sequence (Q12809 whole entry): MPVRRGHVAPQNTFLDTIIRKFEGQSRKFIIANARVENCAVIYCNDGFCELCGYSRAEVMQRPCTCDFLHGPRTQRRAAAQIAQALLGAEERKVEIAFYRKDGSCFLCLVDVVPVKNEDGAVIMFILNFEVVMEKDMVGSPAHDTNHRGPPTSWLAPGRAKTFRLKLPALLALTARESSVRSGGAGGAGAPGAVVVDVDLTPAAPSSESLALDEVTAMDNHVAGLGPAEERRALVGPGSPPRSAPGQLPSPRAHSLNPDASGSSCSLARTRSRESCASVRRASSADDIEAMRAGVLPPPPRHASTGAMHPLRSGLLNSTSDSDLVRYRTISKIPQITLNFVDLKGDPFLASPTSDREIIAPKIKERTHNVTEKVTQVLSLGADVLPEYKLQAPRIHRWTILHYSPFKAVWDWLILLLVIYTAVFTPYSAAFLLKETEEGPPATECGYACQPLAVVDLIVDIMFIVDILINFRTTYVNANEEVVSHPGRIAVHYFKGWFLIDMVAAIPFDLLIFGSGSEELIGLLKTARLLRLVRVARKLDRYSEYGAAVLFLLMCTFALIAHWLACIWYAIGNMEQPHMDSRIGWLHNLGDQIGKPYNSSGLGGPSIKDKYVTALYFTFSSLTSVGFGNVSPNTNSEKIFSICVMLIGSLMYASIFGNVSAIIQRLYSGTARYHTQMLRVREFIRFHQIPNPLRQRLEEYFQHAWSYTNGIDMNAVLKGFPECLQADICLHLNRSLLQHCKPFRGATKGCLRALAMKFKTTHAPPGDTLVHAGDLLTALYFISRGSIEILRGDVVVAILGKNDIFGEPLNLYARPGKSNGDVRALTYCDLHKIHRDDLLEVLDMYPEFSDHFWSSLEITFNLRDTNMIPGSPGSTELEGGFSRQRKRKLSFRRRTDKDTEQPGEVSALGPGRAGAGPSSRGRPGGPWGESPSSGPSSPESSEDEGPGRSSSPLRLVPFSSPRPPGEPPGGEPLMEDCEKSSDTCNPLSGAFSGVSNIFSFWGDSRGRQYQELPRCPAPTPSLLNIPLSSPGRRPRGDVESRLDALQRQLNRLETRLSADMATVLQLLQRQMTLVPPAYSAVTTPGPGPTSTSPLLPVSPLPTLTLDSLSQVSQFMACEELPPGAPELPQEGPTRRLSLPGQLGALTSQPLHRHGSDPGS
Protocol: Assay 5—hERG Assay (Human Ether-á-go-go-Related Gene)
This assay (human Ether-á-go-go-Related Gene) measures activity of the compounds at the potassium ion channel hERG (human Ether-á-go-go-Related Gene).
Experiments were performed on the SyncroPatch 384PE high throughput patch clamp platform at room temperature and medium resistance chips with 4 patch holes per site. Chinese hamster ovary K1 (CHO) cell lines over-expressing the ion channel of choice (hERG) were used in assay-ready format and kept in liquid nitrogen or were used from live culture. Cells were either thawed and diluted in HBSS or were detached from flasks and resuspended in HBSS. HBSS comprised 140 mM NaCl, 4 mM KCl, 10 mM HEPES and 5 mM Glucose (pH7.4). The internal patch clamp solution was KF 120 mM, KCl 20 mM, HEPES 10 mM, EGTA 10 mM, and 25 PM Escin (pH 7.2). After the sealing process was complete, the external solution was exchanged for external patch clamp solution comprising NaCl 80 mM, KCl 4 mM, HEPES 10 mM, CaCl2 2 mM, MgCl2 1 mM, glucose 5 mM, and NMDG 60 mM (pH 7.4). All solutions were stored at room temperature, except Escin, which was stored at 4° C. All test compounds were dispensed in greiner-bio 384 well plates and tested in a 6 point cumulative assay (final DMSO concentration 0.33%). Only wells that passed previously agreed acceptance criteria for this platform were used in this analysis (30 MegaOhm seal resistance, Z prime >0.4 and current size >0.2 nA).

[2] = molecular target: GSK3β (Glycogen synthase kinase-3 beta) (Homo sapiens, UniProt P49841); experiment: Assay 6 - GSK3β assay (ThermoFisher Z-Lyte); assay type: biochemical; details: geometric mean; ATP Conc: 10 μM; read-out: Assay 6 (GSK3β FRET-Z-Lyte CR) GMean IC50 (μM) ATP Conc: 10
GSK3β (Glycogen synthase kinase-3 beta), sequence (P49841 whole entry): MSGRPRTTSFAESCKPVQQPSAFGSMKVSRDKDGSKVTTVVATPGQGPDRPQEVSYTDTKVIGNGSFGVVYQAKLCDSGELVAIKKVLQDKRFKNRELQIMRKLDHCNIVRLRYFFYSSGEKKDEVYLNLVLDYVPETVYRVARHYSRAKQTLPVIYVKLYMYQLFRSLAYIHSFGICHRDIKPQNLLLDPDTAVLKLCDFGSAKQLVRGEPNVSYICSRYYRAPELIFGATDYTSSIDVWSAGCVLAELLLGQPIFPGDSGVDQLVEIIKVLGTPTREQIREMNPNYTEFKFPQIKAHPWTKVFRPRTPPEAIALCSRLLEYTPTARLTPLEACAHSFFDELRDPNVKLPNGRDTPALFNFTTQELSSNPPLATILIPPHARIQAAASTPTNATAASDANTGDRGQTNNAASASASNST
Protocol: Assay 6—GSK3β Assay (ThermoFisher Assay)
This assay measures the activity of the compounds at GSK3β (Glycogen synthase kinase-3 beta).
The test compounds were screened in 1% DMSO (final) in the well. For 10 point titrations, 3-fold serial dilutions are conducted from the starting concentration of 10 μM.
Bar-coded Corning, low volume NBS, black 384-well plate • 1. 2.5 μL—4× Test Compound or 100 nL 100× plus 2.4 μL kinase buffer • 2. 5 μL—2× Peptide/Kinase Mixture • 3. 2.5 μL—4×ATP Solution • 4. 30-second plate shake • 5. 60-minute Kinase Reaction incubation at room temperature • 6. 5 μL—Development Reagent Solution • 7. 30-second plate shake • 8. 60-minute Development Reaction incubation at room temperature • 9. Read on fluorescence plate reader and analyse the data
In step 2, the 2×GSK3β (GSK3 beta)/Ser/Thr (Glycogen synthase kinase-3 beta/Serine/Threonine) 09 mixture is prepared in 50 mM HEPES (4-(2-hydroxyethyl)-1-piperazineethanesulfonic acid) pH 7.5, 0.01% BRIJ-35, 10 mM MgCl2, 1 mM EGTA (egtazic acid). The final 10 μL Kinase Reaction consists of 0.22-0.92 ng GSK3β (GSK3 beta) and 2 μM Ser/Thr 09 in 50 mM HEPES pH 7.5, 0.01% BRIJ-35, 10 mM MgCl2, 1 mM EGTA.
In step 3 the ATP Solution is diluted to a 4× working concentration in Kinase Buffer (50 mM HEPES pH 7.5, 0.01% BRIJ-35, 10 mM MgCl2, 1 mM EGTA).
In Step 6 the Development Reagent is diluted 1:512 in Development Buffer (10× Novel PKC Lipid Mix: 2 mg/mL Phosphatidyl Serine, 0.2 mg/mL DAG in 20 mM HEPES, pH 7.4, 0.3% CHAPS).
SelectScreen® Kinase Profiling Service uses XLfit from IDBS. The dose response curve is curve fit to model number 205 (sigmoidal dose-response model).

PCSK9, sequence (Q8NBP7 with tags, fused parts or gaps V474I/G670E): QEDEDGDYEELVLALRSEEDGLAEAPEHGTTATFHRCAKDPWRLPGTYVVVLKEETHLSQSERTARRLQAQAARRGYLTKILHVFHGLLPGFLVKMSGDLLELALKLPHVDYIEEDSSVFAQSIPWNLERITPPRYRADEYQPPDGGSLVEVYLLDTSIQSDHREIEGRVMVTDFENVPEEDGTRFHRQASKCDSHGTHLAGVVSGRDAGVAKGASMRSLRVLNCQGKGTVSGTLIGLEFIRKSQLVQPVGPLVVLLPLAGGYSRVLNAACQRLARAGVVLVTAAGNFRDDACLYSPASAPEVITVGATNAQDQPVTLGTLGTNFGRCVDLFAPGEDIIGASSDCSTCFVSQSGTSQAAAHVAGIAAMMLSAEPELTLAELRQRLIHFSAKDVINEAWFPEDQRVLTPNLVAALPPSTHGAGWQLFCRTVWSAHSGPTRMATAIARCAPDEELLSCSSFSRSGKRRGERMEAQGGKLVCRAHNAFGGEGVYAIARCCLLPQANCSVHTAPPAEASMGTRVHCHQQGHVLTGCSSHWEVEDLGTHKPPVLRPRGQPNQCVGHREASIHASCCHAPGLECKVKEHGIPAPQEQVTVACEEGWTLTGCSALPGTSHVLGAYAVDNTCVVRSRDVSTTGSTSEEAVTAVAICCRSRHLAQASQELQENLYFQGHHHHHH

Row | SMILES | IC50 (PCSK9) [µM] | IC50 [1] [µM] | IC50 [2] [µM]
1 | Cc1ccc(=O)n(-c2ccc(N[C@H]3CC[C@H](Nc4cnc(Cl)cn4)C3)nc2)c1 [Example 30, 6′-(((1S,3S)-3-((5-Chloropyrazin-2-yl)amino)cyclopentyl)amino)-5-methyl-2H-[1,3′-bipyridin]-2-one] | 0.027 | 32.2 | > 10
2 | CN1CC(=O)N(c2ccc(N[C@H]3CC[C@H](Nc4cnc(OC(F)F)cn4)C3)nc2)C1=O [Example 93, 3-(6-(((1S,3S)-3-((5-(Difluoromethoxy)pyrazin-2-yl)amino)cyclopentyl)amino)pyridin-3-yl)-1-methylimidazolidine-2,4-dione] | 0.087 | > 40 | > 10
3 | O=c1cccnn1-c1ccc(N[C@H]2CC[C@H](Nc3cnc(Cl)cn3)C2)nc1 [Example 25, 2-(6-(((1S,3S)-3-((5-Chloropyrazin-2-yl)amino)cyclopentyl)amino)pyridin-3-yl)pyridazin-3 (2H)-one] | 0.028 | > 40 | > 10
4 | Cc1cnc(N[C@H]2CC[C@H](Nc3ccc(-n4ccccc4=O)cn3)C2)c(=O)[nH]1 [Example 253, 6′-(((1S,3S)-3-((5-Methyl-3-oxo-3,4-dihydropyrazin-2-yl)amino)cyclopentyl)amino)-2H-[1,3′-bipyridin]-2-one] | 0.307 | > 40.1 | > 10
5 | O=c1ccc(Cl)cn1-c1ccc(N[C@H]2CC[C@H](Nc3cnc(C4CC4)cn3)C2)nc1 [Example 109, 5-Chloro-6′-(((1S,3S)-3-((5-Cyclopropylpyrazin-2-yl)amino)cyclopentyl)amino)-2H-[1,3′-bipyridin]-2-one] | 0.041 | 19.9 | > 10
6 | CNC(=O)c1cnc(N[C@H]2CC[C@H](Nc3ccc(-n4cccc(Cl)c4=O)cn3)C2)cn1 [Example 149, 5-(((1S,3S)-3-((3-Chloro-2-oxo-2H-[1,3′-bipyridin]-6′-yl)amino)cyclopentyl)amino)-N-methylpyrazine-2-carboxamide] | 3.96 | > 40.1 | > 10
7 | Cc1cnc(N[C@H]2CC[C@H](Nc3ccc(-n4cc(-c5cnn(C)c5)ccc4=O)cn3)C2)cn1 [Example 206, 5-(1-Methyl-1H-pyrazol-4-yl)-6′-(((1S,3S)-3-((5-methylpyrazin-2-yl)amino)cyclopentyl)amino)-2H-[1,3′-bipyridin]-2-one] | 0.022 | > 40.1 | > 10
8 | COc1ccc(=O)n(-c2ccc(N[C@H]3CC[C@H](Nc4cnc(OC(F)F)cn4)C3)nc2)c1 [Example 95, 6′-(((1S,3S)-3-((5-(Difluoromethoxy)pyrazin-2-yl)amino)cyclopentyl)amino)-5-methoxy-2H-[1,3′-bipyridin]-2-one] | 0.114 | 11.1 | 0.115
9 | Cc1cnc(N[C@H]2CC[C@H](Nc3ccc(N4C(=O)CCc5ccccc54)cn3)C2)cn1 [Example 274, 1-(6-(((1S,3S)-3-((5-Methylpyrazin-2-yl)amino)cyclopentyl)amino)pyridin-3-yl)-3,4-dihydroquinolin-2 (1H)-one] | 0.0081 | 17.1 | > 10
10 | Cn1ccc2nc(N[C@H]3CC[C@H](Nc4ccc(-n5ccccc5=O)cn4)C3)cnc21 [Example 7, 6′-(((1S,3S)-3-((5-Methyl-5H-pyrrolo[2,3-b]pyrazin-2-yl)amino)cyclopentyl)amino)-2H-[1,3′-bipyridin]-2-one] | 3.5 | > 40 | > 10
11 | Cc1cnc(N[C@H]2CC[C@H](Nc3ccc(-n4nccc(OC(F)F)c4=O)cn3)C2)cn1 [Example 282, 4-(Difluoromethoxy)-2-(6-(((1S,3S)-3-((5-methylpyrazin-2-yl)amino)cyclopentyl)amino)pyridin-3-yl)pyridazin-3 (2H)-one] | 0.01 | > 40.1 | > 10
12 | C[C@@]12C[C@]1(C)C(=O)N(c1ccc(N[C@H]3CC[C@H](Nc4cnc(OC(F)F)cn4)C3)nc1)C2=O [Example 80, (cis)-3-(6-(((1S,3S)-3-((5-(Difluoromethoxy)pyrazin-2-yl)amino)cyclopentyl)amino)pyridin-3-yl)-1,5-dimethyl-3-azabicyclo[3.1.0]hexane-2,4-dione] | 1.03 | > 40 | > 10
13 | COc1ccc(=O)n(-c2ccc(N[C@H]3CC[C@H](Nc4cnc(C5CC5)cn4)C3)nc2)c1 [Example 107, 6′-(((1S,3S)-3-((5-Cyclopropylpyrazin-2-yl)amino)cyclopentyl)amino)-5-methoxy-2H-[1,3′-bipyridin]-2-one] | 0.105 |  | 0.16
14 | CCSc1cnc(N[C@H]2CC[C@H](Nc3ccc(-n4ccccc4=O)cn3)C2)cn1 [Example 163, 6′-(((1S,3S)-3-((5-(Ethylthio)pyrazin-2-yl)amino)cyclopentyl)amino)-2H-[1,3′-bipyridin]-2-one] | 0.14 | 30.7 | > 10
15 | O=C1[C@@H]2OCC[C@@H]2CCN1c1ccc(N[C@H]2CC[C@H](Nc3cnc(OC(F)F)cn3)C2)nc1 [Example 78, (3aS,7aR)-6-(6-(((1S,3S)-3-((5-(Difluoromethoxy)pyrazin-2-yl)amino)cyclopentyl)amino)pyridin-3-yl)hexahydrofuro[2,3-c]pyridin-7(4H)-one] | 1.63 | > 40 | > 10
16 | N#Cc1ccc(=O)n(-c2ccc(N[C@H]3CC[C@H](Nc4cnc(OC(F)F)cn4)C3)nc2)c1 [Example 89, 6′-(((1S,3S)-3-((5-(Difluoromethoxy)pyrazin-2-yl)amino)cyclopentyl)amino)-2-oxo-2H-[1,3′-bipyridine]-5-carbonitrile] | 0.121 | 6.8 | > 10
17 | COc1ccc(=O)n(-c2ccc(N[C@H]3CC[C@H](Nc4cnc(Cl)cn4)C3)nc2)c1 [Example 28, 6′-(((1S,3S)-3-((5-Chloropyrazin-2-yl)amino)cyclopentyl)amino)-5-methoxy-2H-[1,3′-bipyridin]-2-one] | 0.043 | 25 | 0.16
18 | CNC(=O)c1cnc(N[C@H]2CC[C@H](Nc3ccc(-n4cccc(OC)c4=O)cn3)C2)cn1 (stereo in doubt) [Example 150, 5-(((1S,3S)-3-((3-Methoxy-2-oxo-2H-[1,3′-bipyridin]-6′-yl)amino)cyclopentyl)amino)-N-methylpyrazine-2-carboxamide] | 8.7 | > 40.1 | > 10
19 | Cn1ncc2ncc(N[C@H]3CC[C@H](Nc4ccc(-n5ccccc5=O)cn4)C3)nc21 [Example 9, 6′-(((1S,3S)-3-((1-Methyl-1H-pyrazolo[3,4-b]pyrazin-6-yl)amino)cyclopentyl)amino)-2H-[1,3′-bipyridin]-2-one] | 0.677 | > 40 | 5.6
20 | Cc1cnc(N[C@H]2CC[C@H](Nc3ccc(-n4cccc(-c5cnn(C)c5)c4=O)cn3)C2)cn1 [Example 203, 3-(1-Methyl-1H-pyrazol-4-yl)-6′-(((1S,3S)-3-((5-methylpyrazin-2-yl)amino)cyclopentyl)amino)-2H-[1,3′-bipyridin]-2-one] |  | > 40.1 | > 10
